This is an account of results in PMC9382192, “Combined treatment with epigenetic agents enhances anti-tumor activity of MAGE-D4 peptide-specific T cells by upregulating the MAGE-D4 expression in glioma” (Frontiers in Oncology, 2022).

In assay [1] the test system is HLA-A2. The assay can be described thus: HLA-A2 expression in U87. The assay is classed as cell-based, human. As to conditions: TSA 1 μM 24 h. The protocol:
The human glioma cell lines (U87-MG and U251) were obtained from the Cell Bank of Type Culture Collection of the Chinese Academy of Science (Shanghai, China). […] A3656), valproic acid (VPA, CAS No. 99-66-1), and trichostatin A (TSA, CAS No. 58880-19-6) were purchased from Sigma-Aldrich Corporation (St. Louis, MO, USA). DAC and TSA were dissolved in DMSO to a concentration of 10 mM. Aliquots were stored at -80°C and diluted with media before being used. Drug treatments were divided into seven groups: (1) DAC group: cells were cultured in medium on the presence of 1 μM DAC for 120 h; (2) VPA group: cells were grown in medium containing 1 mM VPA for 120 h; (3) TSA group: cells were cultured in medium supplemented with 1 μM TSA for 24 h; (4) D + V group: cells were cultured with 1 μM DAC and 1 mM VPA for 120 h; (5) D + T group: cells were cultured with 1 μM DAC for 120 h, followed by 1 μM TSA for 24 h; (6) Control group: cells were cultured with 0.09% DMSO, which is the highest concentration of DMSO used in this study in consideration of the potential toxicity of DMSO to living cells. […] The cells were then harvested, washed with PBS buffer three times, and analyzed by a FACScan flow cytometer (BD Biosciences, Franklin Lakes, NJ, USA) using BD AccuriTM C6 Software (BD Biosciences).

Assay [2] deals with U251. The assay can be described thus: Granzyme A and perforin ELISA, T cells with U251. The note with it: T cells incubated with DAC + TSA-treated U251, E:T 50:1, 4 h. The assay is classed as cell-based, human. How it is done:
The human glioma cell lines (U87-MG and U251) were obtained from the Cell Bank of Type Culture Collection of the Chinese Academy of Science (Shanghai, China). […] A3656), valproic acid (VPA, CAS No. 99-66-1), and trichostatin A (TSA, CAS No. 58880-19-6) were purchased from Sigma-Aldrich Corporation (St. Louis, MO, USA). DAC and TSA were dissolved in DMSO to a concentration of 10 mM. Aliquots were stored at −80°C and diluted with media before being used. […] Four hours later, suspended cells were collected for CD107a flow cytometry, meanwhile, the supernatant was collected and analyzed with granzyme A and perforin ELISA kit (Cloud-Clone Corporation, Wuhan, China) at 450 nm, and the LDH kit (Promega, USA) at 490 nm. The percentage of specific lysis was calculated using the following formula: [(experimental release − spontaneous release)/(maximum release − spontaneous release)] × 100. […] Then, the cytotoxicity assay was measured and calculated as mentioned above.
(In general: An ELISA detects its analyte on a solid surface through an enzyme-linked reagent.)

Regarding `CC(/C=C/C(=O)NO)=C\[C@@H](C)C(=O)c1ccc(N(C)C)cc1` [TSA, trichostatin A], the HLA-A2 levels entry in assay [1] was “elevated HLA-A2 levels with statistical significance”.
For the molecule CLPPPNVIL [Peptide P8], the “granzyme A and perforin secreted by T cells” value in assay [2] is “the most granzyme A and perforin”.
